Test systems include NCI-H460; BT-549; SK-OV-3; Hs-578T; NCI/ADR-RES; LOX IMVI; COLO 205; UACC-62; MCF7; SF-268; K562; SF-295; ACHN; A498; SW-620; CCRF-CEM; OVCAR-4; UO-31; NCI-H522; T47D.
Assay in all cases: DTP human tumour cell line panel, 48 h

As a reminder, the GI50 is the concentration at which growth is held to half of that of the control.

Each structure is given as a SMILES string.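 Compound exposure: 48 hours, 5 concentrations, 96-well plates. GI50: concentration for 50% inhibition of growth.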 The source made the active and inactive calls. Cut-off read from the data, not from the text of the source: active = GI50 up to about 1.1 µM and inactive = higher.

In the case of `O=C(O)c1ccc(C(=O)c2ccccc2C(=O)O)cc1C(=O)O`, the GI50 in the assay on NCI-H460, in the assay on BT-549, in the assay on SK-OV-3, with Hs-578T, in the assay on NCI/ADR-RES and with LOX IMVI was > 100 µM (inactive) in each case. The GI50 in the assay with COLO 205, in the assay on UACC-62, in the assay with MCF7, with SF-268, with K562 and in the assay on SF-295 was > 100 µM (inactive) each time. Also, the GI50 is > 100 µM (inactive) with ACHN; > 100 µM (inactive) in the assay with A498; > 100 µM (inactive) in the assay with SW-620; > 26.4 µM (inactive) with CCRF-CEM; > 100 µM (inactive) in the assay on OVCAR-4; > 100 µM (inactive) with UO-31. Moreover, the GI50 with NCI-H522 and in the assay on T47D was > 100 µM (inactive) throughout.

Take `CCOC(=O)c1cn2c(n1)sc1cc(C)c(C)cc12`: the GI50 in the assay on NCI-H460 was 42.8 µM (inactive); with BT-549 it was 28.7 µM (inactive); with SK-OV-3, 26.5 µM (inactive); with Hs-578T it was 27.6 µM (inactive); in the assay on NCI/ADR-RES, 27.7 µM (inactive); with LOX IMVI, 29.1 µM (inactive). For the same molecule, the GI50 in the assay with COLO 205 was 26.5 µM (inactive); in the assay with UACC-62, 28.3 µM (inactive); in the assay with MCF7 it was 23.6 µM (inactive); in the assay on SF-268 it was 24 µM (inactive); in the assay with K562, 14.4 µM (inactive); in the assay with SF-295, 32 µM (inactive). The GI50 is 19.1 µM (inactive) in the assay with ACHN; 17.1 µM (inactive) with A498; 20.1 µM (inactive) in the assay with SW-620; 24.1 µM (inactive) in the assay on CCRF-CEM; > 100 µM (inactive) in the assay on OVCAR-4; 18.8 µM (inactive) in the assay with UO-31. The GI50 is 31 µM (inactive) in the assay with NCI-H522 and 25.5 µM (inactive) in the assay on T47D.

As for `N#CC(c1ccnc(Cl)n1)c1nc2ccccc2s1` (stereo not given), the GI50 in the assay on NCI-H460 is 3.61 µM (inactive); in the assay on BT-549, 3.29 µM (inactive); in the assay on SK-OV-3, 3.21 µM (inactive); in the assay with Hs-578T, 7.74 µM (inactive); in the assay with NCI/ADR-RES it was 2.67 µM (inactive); with LOX IMVI, 3.55 µM (inactive). Further, the GI50 in the assay on COLO 205 was 10.4 µM (inactive); in the assay with UACC-62 it was 3.21 µM (inactive); in the assay on MCF7, 3.68 µM (inactive); in the assay on SF-268, 4.98 µM (inactive); in the assay with K562 it was 2 µM (inactive); with SF-295 it was 8.49 µM (inactive). Moreover, the GI50 in the assay on ACHN was 13.7 µM (inactive); with A498, 15.8 µM (inactive); in the assay on SW-620, 4.3 µM (inactive); in the assay with CCRF-CEM it was 0.063 µM (active); in the assay with OVCAR-4 it was 6.9 µM (inactive); in the assay on UO-31, 4.07 µM (inactive). For the same molecule, the values for the GI50 with NCI-H522 and with T47D were 1.6 µM (inactive) and 4.19 µM (inactive), respectively.

With `NC1=CN(Cc2ccccc2)C2=N/C(=C\c3ccccc3O)C(=O)N12`, the GI50 in the assay with NCI-H460, with BT-549, with SK-OV-3, in the assay with Hs-578T, with NCI/ADR-RES and in the assay on LOX IMVI was > 100 µM (inactive) in each case. The GI50 is > 100 µM (inactive) in the assay on COLO 205; > 100 µM (inactive) in the assay with UACC-62; > 100 µM (inactive) with MCF7; > 100 µM (inactive) in the assay with SF-268; 73.3 µM (inactive) with K562; > 100 µM (inactive) in the assay with SF-295. The GI50 in the assay on ACHN was > 100 µM (inactive); in the assay on A498, > 100 µM (inactive); in the assay on SW-620 it was > 100 µM (inactive); in the assay with CCRF-CEM, 81.8 µM (inactive); in the assay with OVCAR-4, > 100 µM (inactive); in the assay with UO-31, 70.3 µM (inactive). Further, the GI50 with NCI-H522 is > 100 µM (inactive); with T47D, 94.4 µM (inactive).

On to `Cc1ccc(-c2cc[n+]3c(n2)oc2ccccc23)cc1`, for which the GI50 is 72.8 µM (inactive) in the assay on NCI-H460; 28.2 µM (inactive) with BT-549; 33.6 µM (inactive) in the assay with SK-OV-3; 27.8 µM (inactive) with Hs-578T; > 100 µM (inactive) in the assay with NCI/ADR-RES; 35.7 µM (inactive) with LOX IMVI. Moreover, the GI50 in the assay on COLO 205 is 12.4 µM (inactive); in the assay on UACC-62, 24.2 µM (inactive); in the assay on MCF7, 30.8 µM (inactive); with SF-268 it was 43.9 µM (inactive); with K562, 4.84 µM (inactive); in the assay with SF-295 it was 26.7 µM (inactive). The GI50 in the assay with ACHN is 28.6 µM (inactive); in the assay with A498, 19.1 µM (inactive); with SW-620, 8.93 µM (inactive); in the assay with CCRF-CEM, 10.3 µM (inactive); in the assay with OVCAR-4, 16 µM (inactive); in the assay on UO-31, 67.3 µM (inactive). For the same molecule, the values for the GI50 in the assay with NCI-H522 and in the assay on T47D were 5.98 µM (inactive) and 16.3 µM (inactive), respectively.

As for `CN(C)[C@@H]1C(O)=C(C(=O)NCNc2nc3[nH]nnc3c(=O)[nH]2)C(=O)[C@@]2(O)C(O)=C3C(=O)c4c(O)cccc4[C@@](C)(O)[C@H]3C[C@@H]12`, the GI50 with NCI-H460 is 24.3 µM (inactive); with BT-549, 6.7 µM (inactive); in the assay on SK-OV-3, 0.723 µM (active); with Hs-578T, 2 µM (inactive); in the assay with NCI/ADR-RES, 2.37 µM (inactive); in the assay on LOX IMVI, 0.679 µM (active). In addition, the GI50 in the assay on COLO 205 was 23.6 µM (inactive); with UACC-62, 0.346 µM (active); with MCF7, 66.1 µM (inactive); in the assay on SF-268, 1.01 µM (active); in the assay on K562, 0.402 µM (active); in the assay on SF-295, 4.47 µM (inactive). The GI50 in the assay with ACHN is 31.5 µM (inactive); in the assay on A498 it was 92 µM (inactive); with SW-620 it was 0.471 µM (active); in the assay with CCRF-CEM, 0.228 µM (active); with OVCAR-4, 8.63 µM (inactive); with UO-31 it was 0.358 µM (active). Besides, the GI50 is 20.4 µM (inactive) in the assay with NCI-H522 and 5.37 µM (inactive) in the assay on T47D.

Turning to `COc1ccc(-c2cc(-c3ccccc3)nc3c2CC(=O)Nc2ccccc2-3)cc1OC`, the GI50 in the assay with NCI-H460 is > 100 µM (inactive); in the assay with BT-549, > 100 µM (inactive); in the assay on SK-OV-3, 5.74 µM (inactive); in the assay with Hs-578T, 0.855 µM (active); in the assay with NCI/ADR-RES, 1.37 µM (inactive); in the assay on LOX IMVI it was 2 µM (inactive). For the same molecule, the GI50 with COLO 205 is > 27.9 µM (inactive); in the assay with UACC-62 it was > 100 µM (inactive); in the assay with MCF7, > 20 µM (inactive); with SF-268, 0.933 µM (active); in the assay with K562 it was 1.45 µM (inactive); with SF-295 it was > 100 µM (inactive). The GI50 in the assay with ACHN was 4.67 µM (inactive); in the assay on A498 it was 1.89 µM (inactive); with SW-620 it was > 21.4 µM (inactive); in the assay on CCRF-CEM it was > 100 µM (inactive); in the assay with OVCAR-4, 1.2 µM (inactive); in the assay with UO-31, 5.69 µM (inactive). Also, the GI50 with NCI-H522 was > 76.7 µM (inactive); in the assay on T47D it was > 68.9 µM (inactive).

As for `O=C1CSC(=S)N1/N=C/c1ccc(Cl)c([N+](=O)[O-])c1`, the GI50 in the assay on NCI-H460 was 41.3 µM (inactive); in the assay with BT-549, 19.8 µM (inactive); with SK-OV-3, 36.6 µM (inactive); with Hs-578T, 37.8 µM (inactive); with NCI/ADR-RES it was 22.6 µM (inactive); with LOX IMVI, 22.2 µM (inactive). Moreover, the GI50 with COLO 205 is 43.7 µM (inactive); in the assay on UACC-62, 25.9 µM (inactive); with MCF7, 13.3 µM (inactive); in the assay on SF-268 it was 19.6 µM (inactive); with K562, 38.3 µM (inactive); in the assay on SF-295, 24.8 µM (inactive). Moreover, the GI50 in the assay on ACHN is 23.3 µM (inactive); with A498, 61 µM (inactive); in the assay with SW-620, 33.7 µM (inactive); in the assay on CCRF-CEM it was 7.35 µM (inactive); in the assay with OVCAR-4 it was 22.5 µM (inactive); in the assay with UO-31 it was 27.6 µM (inactive). For the same molecule, the GI50 is 18.3 µM (inactive) in the assay with NCI-H522 and 23 µM (inactive) in the assay on T47D.

Take `O=C(O)CCC(=O)c1ccc2ccc3cccc4ccc1c2c34`: the GI50 was 39.3 µM (inactive) in the assay with NCI-H460; 63.2 µM (inactive) in the assay on BT-549; > 100 µM (inactive) in the assay with SK-OV-3; > 100 µM (inactive) in the assay on Hs-578T; 96.4 µM (inactive) with NCI/ADR-RES; 71.8 µM (inactive) in the assay on LOX IMVI. Also, the GI50 is 44.9 µM (inactive) in the assay on COLO 205; > 100 µM (inactive) with UACC-62; 54.3 µM (inactive) with MCF7; 61.7 µM (inactive) in the assay on SF-268; 81.7 µM (inactive) in the assay on K562; 70.6 µM (inactive) in the assay with SF-295. The GI50 is 52.7 µM (inactive) in the assay on ACHN; 67.5 µM (inactive) with A498; 59.2 µM (inactive) in the assay with SW-620; 45.3 µM (inactive) in the assay with CCRF-CEM; > 100 µM (inactive) in the assay with OVCAR-4; 94.6 µM (inactive) in the assay on UO-31. Moreover, the GI50 in the assay on NCI-H522 is 83.8 µM (inactive); in the assay with T47D, 83 µM (inactive).

For `COc1cc(OC)c(-c2oc3ccccc3c(=O)c2O)c(OC)c1`, the GI50 in the assay on NCI-H460 was 3.21 µM (inactive); in the assay on BT-549, 1.67 µM (inactive); in the assay on SK-OV-3 it was 5.94 µM (inactive); in the assay on Hs-578T, 2.39 µM (inactive); in the assay on NCI/ADR-RES, 1.77 µM (inactive); in the assay on LOX IMVI, 5.98 µM (inactive). Further, the GI50 is 3.08 µM (inactive) with COLO 205; 2.69 µM (inactive) in the assay with UACC-62; 6.25 µM (inactive) with MCF7; > 41.3 µM (inactive) with SF-268; 2.7 µM (inactive) with K562; 2.44 µM (inactive) in the assay on SF-295. Also, the GI50 in the assay on ACHN was > 29 µM (inactive); in the assay on A498, 3.27 µM (inactive); with SW-620, 3.62 µM (inactive); in the assay on CCRF-CEM, 6.75 µM (inactive); with OVCAR-4, 0.237 µM (active); in the assay on UO-31 it was > 62.7 µM (inactive). For the same molecule, the GI50 is 2.75 µM (inactive) with NCI-H522 and 4.16 µM (inactive) in the assay with T47D.

Source of the values: ChEMBL document CHEMBL1201862, “PubChem BioAssay data set” (2004).
